Drawing on paper PMC3224194 (European journal of pharmacology, 2011), this text covers Ki for two compounds.

Common to all, as to test: competition with [3H]-mesulergine, HEK membranes
Assay type in all cases: binding

In assay [1] the target is T1, human 5-HT2C-INI (WT) receptor (Homo sapiens, UniProt P28335, Y358A).
T1 sequence (P28335 33-458 Y358A): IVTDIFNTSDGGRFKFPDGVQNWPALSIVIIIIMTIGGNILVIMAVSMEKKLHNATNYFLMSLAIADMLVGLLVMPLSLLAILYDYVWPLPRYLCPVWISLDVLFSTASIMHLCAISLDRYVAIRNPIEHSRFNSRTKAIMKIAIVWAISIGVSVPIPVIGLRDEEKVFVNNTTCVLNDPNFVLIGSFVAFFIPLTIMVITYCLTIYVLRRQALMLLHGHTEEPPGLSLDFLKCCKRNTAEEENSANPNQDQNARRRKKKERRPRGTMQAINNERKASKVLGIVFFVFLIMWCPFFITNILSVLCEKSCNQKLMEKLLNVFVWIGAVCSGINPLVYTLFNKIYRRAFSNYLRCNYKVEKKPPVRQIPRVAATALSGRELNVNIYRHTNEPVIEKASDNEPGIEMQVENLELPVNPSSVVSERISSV

Assay [2] addresses T2, human 5-HT2C-INI (WT) receptor (Homo sapiens, UniProt P28335).
T2 sequence (P28335 33-458): T1 sequence (P28335 33-458 Y358A) with A326Y

The target in assay [3] is T3, human 5-HT2C-INI (WT) receptor (Homo sapiens, UniProt P28335, S138A).
T3 sequence (P28335 33-458 S138A): T1 sequence (P28335 33-458 Y358A) with S106A, A326Y

The structures appear in SMILES notation. Numbering of substitutions follows the chain as printed.

By Ki is commonly meant the dissociation constant of the complex between target and ligand, obtained from inhibition or displacement. In the case of `NC1Cc2ccccc2C(c2ccccc2)C1` (racemic) [NH2-PAT], the Ki stood at 1350 nM in assay [1], 1550 nM in assay [2] and 9040 nM in assay [3].
Taken in the same sequence, the figures for `NCCc1c[nH]c2ccccc12` [Tryptamine] were 298 nM, 57.1 nM and 1510 nM.
